GI50 and TGI data for 9 compounds are collected here from PubChem BioAssay (NCI).

SMILES strings stand for the structures.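 Growth conditions: 96-well plates. Treatment: test compound, 48 hours, 5 concentrations. Analysis: linear interpolation between bracketing concentrations; unreached endpoints set to highest concentration. GI50 marks 50% less growth. TGI: total growth inhibition.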 Some results are limits rather than exact numbers.

Common to all, as to assay: NCI anticancer screen, dose series, 48 h
Experiment [1] concerns UACC-257 melanoma.
Experiment [2] has as its system SF-268 CNS.
Experiment [3] relates to HCT-15 colon.
Experiment [4] concerns SNB-75 CNS.
For experiment [5], the system named is OVCAR-4 ovarian.
Experiment [6] relates to MOLT-4 leukemia.
For experiment [7], the system named is SN12C renal.
Experiment [8] relates to M14 melanoma.
In experiment [9] the test system is SK-MEL-5 melanoma.
Experiment [10] relates to HT29 colon.

In the case of `COc1ccccc1Nc1ncc(-c2ccccc2)o1`, the GI50 in [1], in [2], in experiment [3], in experiment [4], in experiment [5] and in experiment [6] was above 25 µM throughout. For the same compound, the GI50 in experiment [7], in [8], in [9] and in experiment [10] was above 25 µM in each case. For the same compound, the TGI in [1], in experiment [2], in [3], in experiment [4], in experiment [5] and in experiment [6] was above 25 µM in each case. Moreover, the TGI in experiment [7], in [8], in experiment [9] and in experiment [10] was above 25 µM each time.

For `COC(=O)c1ccc2c(c1)/C(=C\c1cc(Br)c(O)c(Br)c1)C(=O)N2`, the GI50 in experiment [1] was 4.24 µM; in experiment [2], 10.1 µM; in experiment [3], 5.47 µM; in experiment [4] it was 5.4 µM; in [5], 7.96 µM; in experiment [6], 7.59 µM. Besides, the GI50 was 10 µM in experiment [7], 1.88 µM in experiment [8], 4.48 µM in experiment [9] and 4.3 µM in experiment [10]. For the same compound, the TGI in experiment [1] is 15.5 µM; in experiment [2] it was above 25 µM; in [3], above 25 µM; in [4] it was above 25 µM; in experiment [5], above 25 µM; in experiment [6], above 24.1 µM. For the same compound, the TGI in [7] was above 25 µM; in [8] it was 9.23 µM; in experiment [9], above 16.5 µM; in experiment [10], above 25 µM.

`COc1cc(/C=C/C(=O)c2cccc(-n3cc(-c4ccc(Cl)cc4)[nH]c3=O)c2)ccc1O`: the GI50 is 5.53 µM in experiment [1]; 2.93 µM in experiment [2]; 1.8 µM in experiment [3]; 2.36 µM in experiment [4]; 3.11 µM in experiment [5]; 1.62 µM in [6]. The GI50 is 2.81 µM in [7], 3.51 µM in experiment [8], 1.88 µM in experiment [9] and 2.97 µM in [10]. Also, the TGI in experiment [1] is 18.6 µM; in [2], 12.6 µM; in experiment [3], 7.07 µM; in experiment [4], 10.2 µM; in experiment [5] it was above 23.7 µM; in experiment [6] it was above 25.1 µM. For the same compound, the TGI in experiment [7] is above 60.9 µM; in experiment [8], 15.2 µM; in experiment [9] it was 5.22 µM; in experiment [10], above 100 µM.

Consider `O=C(CNS(=O)(=O)Cc1ccccc1)NNc1ccccc1`, for which the TGI in experiment [1], in experiment [2], in experiment [3], in experiment [4], in experiment [5] and in experiment [6] was above 100 µM throughout. Also, the TGI in experiment [7], in [8], in experiment [9] and in [10] was above 100 µM each time.

As to `CC12CCC3c4ccc(O)cc4CCC3C1C/C(=N\O)C2O` (centres undefined), the TGI in experiment [1], in [2], in experiment [3], in experiment [4], in [5] and in experiment [6] was above 100 µM in each case. Moreover, the TGI in experiment [7], in [8], in experiment [9] and in experiment [10] was above 100 µM each time.

For `CS(=O)(=O)Nc1cc(-c2ccc3ncnc(Nc4c(Cl)ccc5c4OCO5)c3c2)cnc1Cl`, the GI50 was 0.208 µM in experiment [1]; 0.119 µM in [2]; 0.204 µM in experiment [3]; 0.348 µM in experiment [5]; 0.165 µM in experiment [6]; 0.202 µM in [7]. Also, the GI50 in [8] was 0.2 µM; in experiment [9] it was 0.191 µM; in experiment [10], 0.238 µM. The TGI in [1] worked out at 3.32 µM; in experiment [2], 1.48 µM; in experiment [3], 1.49 µM; in [4], 0.0972 µM; in experiment [5], 4.45 µM; in [6], 0.76 µM. Further, the TGI in [7] was above 100 µM; in experiment [8], 1.48 µM; in experiment [9] it was 0.465 µM; in experiment [10], 3.93 µM.

On to `CCOC(=O)/C=C/c1ccc(C#Cc2ccccc2)cc1`, for which the GI50 in experiment [1] is above 100 µM; in experiment [2], above 100 µM; in experiment [3], above 100 µM; in experiment [4], 31.8 µM; in experiment [5], 68.4 µM; in experiment [6] it was above 100 µM. Also, the GI50 in experiment [7] is above 100 µM; in experiment [8], above 100 µM; in [9] it was 68.5 µM; in experiment [10], above 100 µM. Further, the TGI in experiment [1] is above 100 µM; in [2], above 100 µM; in experiment [3], above 100 µM; in experiment [4], 97.1 µM; in experiment [5], above 100 µM; in experiment [6], above 100 µM. The TGI in experiment [7], in [8], in experiment [9] and in [10] was above 100 µM in each case.

Regarding `C=COC(=O)N[C@H]1CCc2cc(OC)c(OC)c(OC)c2-c2ccc(SC)c(=O)cc21`, the TGI is 77.7 µM in experiment [1]; 44.9 µM in [2]; above 100 µM in experiment [3]; 14.4 µM in experiment [4]; 92.9 µM in [5]; above 96.8 µM in [6]. The TGI in experiment [7] is 54.7 µM; in [8], 14.7 µM; in experiment [9] it was 0.097 µM; in experiment [10] it was 0.149 µM.

Regarding `COC(=O)c1s/c(=N\C(=S)N(C)C)n(-c2ccc(Cl)cc2)c1C(=O)OC`, the TGI in experiment [1] was above 100 µM; in experiment [2] it was above 100 µM; in [3], above 100 µM; in experiment [4], above 10 µM; in experiment [5] it was above 100 µM; in experiment [6], above 100 µM. Also, the TGI in experiment [7] is above 100 µM; in experiment [8], above 100 µM; in [9], above 10 µM; in [10], above 100 µM.
